Reference: patent US4840941A, “Method for inhibiting infection of human T-cells” (Kabushiki Kaisha Ueno Seiyaku Oyo Kenkyujo, priority 1986, dated 1989)

Assays:
HTLV-III [1] = assay: Anti-AIDS virus activity, MT-4 cells infected with HTLV-III, 3 days; format: cell-based; conditions: increasing dose
Procedure: (§1) To MT-4 cells (30×10^4 /ml) cultured in RPMI-1640 medium containing 10% bovine serum, was inoculated HTLV-III, and the suspension was incubated at 37° C. for 1 hour to cause the adsorption of the virus. The cell:virus ratio was 500:1. The cells were then washed, and cultured with or without various doses of the test substances (same as those of Example 1) at 37° C. under 5% CO2 for 3 days, after which cell growth, viability, and percentage of infected cells were recorded. The infected cells were distinguished from the uninfected cells by indirect immuno-fluorescence method. Thus; the cultured cells were fixed with cold methanol on a slide glass, reacted with antibody to the HTLV-III-specific antigens, and further with the secondary antibody (having fluorescent label). The results are shown in FIGS. 9-29, wherein, , and show the controls without virus; , and show the infection experiments with HTLV-III. The cell growth is indicated in number of cells, the viability (%) in number of viable cells×100/number of total cells, and the infected cell rate (%) in number of fluorescent-positive cells×100/number of total cells.
Test substances were assayed for the anti-AIDS virus activity in the same manner as in Example 3 using cell culture. The test substances are the same as those used in Example 5. […]
The anti-AIDS virus activity of heparin was evaluated in the same manner as in Example 3. […]

HTLV-III [2] = assay: Anti-AIDS activity, infected cell rate of MT-4 cells infected with HTLV-III at 6th day; format: cell-based; conditions: for anti-AIDS virus activity: MT-4 cells, HTLV-III
Procedure: as §1
In order to examine the correlation between the anti-AIDS virus activity and the molecular structure (especially, molecular weight and S-content or number of sulfate group in this case) of various test substances including those used in Examples 1-7, the anti-AIDS activities were evaluated for the various naturally occurring polysaccharides, polysaccharides having sulfate group, mucopolysaccharides, mucopolysaccharide sulfate, and mucopolysaccharide polysulfate. Further, similar experiments were carried out with various other sulfates which were synthetically obtained. The experimental procedures employed are identical to that in preceding experiments. The cultured MT-4 cells were infected with HTLV-III and the inhibitory effects of various test subsutances on the infected cell rate (number of fluorescent cell×100/ total cell, %) were determined at 6th day.

[3] = Acute toxicity (LD50) in mice; format: in vivo
[4] = system: reverse transciptase of simian sarcoma virus; conditions: in vitro; Cancer Research, 38, 2401-2407; cited from earlier work
[5] = system: DNA polymerase of phytohemagglutinin stimulated human lymphocytes; conditions: in vitro; Cancer Research, 38, 2401-2407; cited from earlier work
[6] = system: disrupted HTLV-III virions as a crude reverse transcriptase; assay: Inhibition of reverse transcriptase activity (disrupted HTLV-III virions); format: biochemical; conditions: crude enzyme from HTLV-III virions
[7] = system: reverse transcriptase (authentic sample) derived from Avian Myeloblastosis Virus; assay: Inhibition of reverse transcriptase activity (AMV); format: biochemical; conditions: AMV enzyme; 1, 0.1 and 0.01 μg/ml
Procedure: Test substances were assayed for inhibition against the enzyme activity of reverse transcriptase (authentic sample) derived from Avian Myeloblastosis Virus (abbrev. AMV), a kind of retrovirus. Five microliters of […] (template RNA), 4 μl of (dT)12-18 (primer DNA), and 1 μl of water were mixed with 5 μl of 0.5M Tris-CHl (pH 8.4) including 0.1% triton X-100, 5 μl of […], 5 μl of 20 mM-DDT, 5 μl of water, and [^3 H]-TTP (tritium labeled thymidine triphosphate). To this mixture, test substances in solutions (final concentrations: 1, 0.1, and 0.01 μg/ml, 5 μl) or buffer solutions (control, 5 μl) at various doses were added. Then, 5 μl (one unit) of the authentic reverse transcriptase derived from AMV was added and the reaction mixture was incubated at 37° C. for 30 minutes. The reaction was stopped by addition of trichloroacetic acid, and after filtering the reaction mixture, the radioactivity of the polymerized (^3 H-T)n retained on the filter was measured using a liquid scintillation counter. As the test substances, sodium dextran sulfate (molecular weight: 5000), same (molecular weight: 8000), same (molecular weight: 500000), fucoidin, κ-carrageenan, λ-carrageenan, and .iota.-carrageenan were used.
The effects of the test substances on the reverse transcriptase activity of AMV were evaluated by the method described in Example 1.

[8] = 10 μg/ml, 6th day, control 100%
[9] = 100 μg/ml, 6th day, control 100%

## Heparin
HTLV-III [1]
  cell growth and viability of MT-4 cells infected with HTLV-III: the number of cells and viability were maintained to that of control
HTLV-III [1]; indirect immunofluorescence
  infected cell rate: less susceptible to the viral infection
HTLV-III [2]; [8]
  Infected cell (%): 41%
HTLV-III [2]; [9]
  Infected cell (%): 1%
HTLV-III [2]; 6th day
  anti-AIDS virus activity: particularly strong anti-AIDS virus activities
[3]; intravenously
  acute toxicity (LD50): 1,500-2,000 mg/kg
[4]
  inhibition of reverse transcriptase of simian sarcoma virus: inhibit
[5]
  inhibition of DNA polymerase of phytohemagglutinin stimulated human lymphocytes: inhibit

## Sodium dextran sulfate [Sodium dextran sulfate (molecular weight: 7000-8000, S-conte]
[6]
  reverse transcriptase inhibitory effect: has an inhibitory effect
HTLV-III [2]; 10 μg/ml, 6th day; control 100%; S-content 17-20), 8640 min
  Infected cell (%): 1%
HTLV-III [2]; [9]
  Infected cell (%): 0%
[3]; intravenously
  acute toxicity (LD50): 4,500 mg/kg
[3]; orally
  acute toxicity (LD50): 21,000 mg/kg

## Chondroitin polysulfate
[7]
  reverse transcriptase inhibition activity: stronger activity than the natural substances
HTLV-III [2]; [8]
  Infected cell (%): 3%
HTLV-III [2]; [9]
  Infected cell (%): 1%
HTLV-III [2]; 6th day
  anti-AIDS virus activity: particularly strong anti-AIDS virus activities
